In paper PMC9146228, “Bioactivity of Novel Pyrazole-Thiazolines Scaffolds against Trypanosoma cruzi: Computational Approaches and 3D Spheroid Model on Drug Discovery for Chagas Disease” (Pharmaceutics, 2022):
Read-outs that look alike come from different tables or passages of the source.

Experiments:
[1] = system: T. cruzi (Dm28c-Luc) intracellular amastigotes; assay: Trypanocidal activity against intracellular amastigotes in infected Vero cell monolayers; assay type: cell-based, Trypanosoma cruzi; conditions: for IC90: read-out: Trypanocidal Activity Intracellular Amastigotes IC90; for Intracellular Amastigotes SI (CC50 of Vero cells/IC50): selectivity index vs Vero cells
Method: The susceptibility of intracellular amastigotes to pyrazole-thiazoline derivatives (series 1 and 2) was evaluated using 24 h T. cruzi-infected Vero cell monolayers (10:1 parasite/host cell ratio). Then, the cultures were washed with PBS to remove non-internalized parasites, and 200 μL of fresh medium with a serial dilution of pyrazole-thiazoline derivatives and Bz (0.41–100 µM) was added for 72 h at 37 °C.
(§1) After 72 h of treatment, luciferin (300 µg/mL) was added to the culture, and the viability of the parasites was assessed by reading the luminescent signal on the GloMax reader (Promega Corporation, Madison, WI, USA). Controls were also performed in non-toxic concentrations of DMSO (≤ 1%). The concentration that reduces the number of viable parasites by 50% (IC50) or 90% (IC90) was calculated by linear regression. The selectivity index (SI) was calculated as CC50/IC50 for each parasite form.

[2] = Cytotoxicity in vitro assay (CellTiter-Glo); assay type: cell-based; conditions: African green monkey, Vero cells, mean ± SD
Method: Vero cells, obtained from the Rio de Janeiro Cell Bank (BCRJ code 0245), were dissociated with trypsin–EDTA solution (0.025%), and maintained in RPMI 1640 medium supplemented with 10% fetal bovine serum (FBS) at 37 °C in a humidified atmosphere of 5% CO2.
The compound toxicity was evaluated in Vero cell cultures. Briefly, Vero cells were seeded in 96-well white culture plates at a density of 1.5 × 10^4 cells/well for 24 h at 37 °C and 5% CO2. Thereafter, the cell monolayers were washed with phosphate-buffered saline (PBS) and 200 μL of fresh medium with a serial dilution of the pyrazole-thiazoline derivatives and Bz (1.9–500 µM) added. The cell viability was determined by luminescent assay using the CellTiter-Glo Kit (Promega Corporation, Madison, WI, USA) based on the ATP level. After 72 h of treatment, 20 μL of CellTiter-Glo solution was added per well, and cultures were kept for 2 min under agitation. The luminescent signal was read on the GloMax reader (Promega Corporation, Madison, WI, USA). The concentration of compounds that reduced 50% of cell viability (CC50) was calculated by linear regression. At least three independent assays were performed in duplicate.

[3] = system: T. cruzi (Dm28c-Luc) trypomastigotes; assay: microbe, parasite or virus in culture; assay type: cell-based, Trypanosoma cruzi; conditions: for IC50 / IC90: Trypanosoma cruzi, 24 h, Dm28c-Luc, mean ± SD; for IC50: read-out: Trypanocidal Activity Trypomastigotes IC50; for IC90: read-out: Trypanocidal Activity Trypomastigotes IC90; for Trypomastigotes SI (CC50 of Vero cells/IC50): selectivity index vs Vero cells
Method: The screening assays were performed with T. cruzi clone Dm28c (TcI) genetically modified to express luciferase gene (Dm28c-Luc), kindly provided by Dr. Cristina Henriques. Trypomastigotes were isolated from T. cruzi-infected Vero cell monolayers (10:1 parasites/host cell ratio). On the 4th day post-infection (dpi), free trypomastigotes in the culture supernatant were harvested, and the number of parasites/mL was quantified in a Neubauer chamber.
The trypanocidal activity of the pyrazole-thiazoline derivatives was evaluated against trypomastigote and intracellular amastigote forms of T. cruzi (Dm28c-Luc). Tissue-derived trypomastigotes (1 × 10^6 parasites/well) were incubated with pyrazole-thiazoline derivatives and Bz in different concentrations (0.41–100 µM) for 24 h at 37 °C in a humidified atmosphere and 5% CO2. The parasite viability was determined by the addition of luciferin (300 µg/mL), followed by luminescence detection on the GloMax microplate reader (Promega Corporation, Madison, WI, USA).
as §1

[4] = Trypanosoma cruzi, Vero, 72 h, Dm28c-Luc in Vero cells, 72 h, mean ± SD, read-out: Trypanocidal Activity Intracellular Amastigotes IC50
[5] = Trypanosoma cruzi, Vero, pIC50 = −log IC50, Dm28c-Luc clone, read-out: Intracellular Amastigotes pIC50 (converted)
[6] = Trypanosoma cruzi, Dm28c-Luc in Vero cells, 72 h, mean ± SD
[7] = Dm28c-Luc in Vero cells, 72 h, mean ± SD, read-out: Trypanocidal Activity Intracellular Amastigotes IC50

Nc1c(C2=NCCS2)cnn1-c1ccccc1 [Compound 1a, 2-(5-amino-1-phenyl-1H-pyrazol-4-yl)-4,5-dihydrothiazole]
IC50 [1, 4]: 80.7 ± 3.9 µM
IC50 [1, 5]: 81.3 µM
IC90 [1, 6]: > 100 µM
Intracellular Amastigotes SI (CC50 of Vero cells/IC50) [1]: 3.1
melting point: 176 to 178 °C
CC50 at 72 h [2]: 248 ± 22 µM
IC50 [3]: 66.4 ± 2.7 µM
IC90 [3]: > 100 µM
Trypomastigotes SI (CC50 of Vero cells/IC50) [3]: 3.7

Clc1cccc(-n2cc(C3=NCCS3)cn2)c1 [Compound 2b, 2-(1-(3-chlorophenyl)-1H-pyrazol-4-yl)-4,5-dihydrothiazole]
IC50 [1, 7]: 8.3 ± 1.9 µM
IC50 [1, 4]: < 10 µM
IC50 [1, 5]: ~10 µM
IC90 [1, 6]: 31.9 ± 1.3 µM
Intracellular Amastigotes SI (CC50 of Vero cells/IC50) [1]: 9.4
melting point: 88 to 90 °C
CC50 at 72 h [2]: 78.3 ± 7.7 µM
IC50 [3]: 0.8 ± 0.3 µM
IC90 [3]: 8.8 ± 1.3 µM
Trypomastigotes SI (CC50 of Vero cells/IC50) [3]: 100.2

Nc1c(C2=NCCS2)cnn1-c1ccc(Cl)c(Cl)c1 [Compound 1e, 2-(5-amino-1-(3,4-dichlorophenyl)-1H-pyrazol-4-yl)-4,5-dihydrothiazole]
IC50 [1, 4]: > 100 µM
IC50 [1, 5]: > 100 µM
IC90 [1, 6]: > 100 µM
Intracellular Amastigotes SI (CC50 of Vero cells/IC50) [1]: <5
melting point: 279 to 282 °C
CC50 at 72 h [2]: > 500 µM
IC50 [3]: > 100 µM
IC90 [3]: > 100 µM
Trypomastigotes SI (CC50 of Vero cells/IC50) [3]: <5

Fc1ccc(-n2cc(C3=NCCS3)cn2)cc1 [Compound 2g, 2-(1-(4-fluorophenyl)-1H-pyrazol-4-yl)-4,5-dihydrothiazole]
IC50 [1, 4]: 14 ± 1.8 µM
IC50 [1, 5]: 14.1 µM
IC90 [1, 6]: 98 ± 3.4 µM
Intracellular Amastigotes SI (CC50 of Vero cells/IC50) [1]: 4.18
melting point: 131 to 133 °C
CC50 at 72 h [2]: 58.6 ± 8.11 µM
IC50 [3]: 7.9 ± 1 µM
IC90 [3]: 30.1 ± 2.8 µM
Trypomastigotes SI (CC50 of Vero cells/IC50) [3]: 7.3

c1ccc(-n2cc(C3=NCCS3)cn2)cc1 [Compound 2a, 2-(1-phenyl-1H-pyrazol-4-yl)-4,5-dihydrothiazole]
IC50 [1, 4]: 10.7 ± 2.2 µM
IC50 [1, 5]: 10.7 µM
IC90 [1, 6]: 89 ± 2.6 µM
Intracellular Amastigotes SI (CC50 of Vero cells/IC50) [1]: 17.4
melting point: 112 to 114 °C
CC50 at 72 h [2]: 187 ± 12.7 µM
IC50 [3]: 1.1 ± 0.3 µM
IC90 [3]: 10.4 ± 1.1 µM
Trypomastigotes SI (CC50 of Vero cells/IC50) [3]: 166.8

Nc1c(C2=NCCS2)cnn1-c1cccc(Br)c1 [Compound 1j, 2-(5-amino-1-(3-bromophenyl)-1H-pyrazol-4-yl)-4,5-dihydrothiazole]
IC50 [1, 4]: 26.6 ± 3.1 µM
IC50 [1, 5]: 26.9 µM
IC90 [1, 6]: > 100 µM
Intracellular Amastigotes SI (CC50 of Vero cells/IC50) [1]: >18.7
melting point: 171 to 173 °C
CC50 at 72 h [2]: > 500 µM
IC50 [3]: 52.3 ± 3.4 µM
IC90 [3]: > 100 µM
Trypomastigotes SI (CC50 of Vero cells/IC50) [3]: >9.5

Nc1c(C2=NCCS2)cnn1-c1ccc(Cl)cc1Cl [Compound 1c, 2-(5-amino-1-(2,4-dichlorophenyl)-1H-pyrazol-4-yl)-4,5-dihydrothiazole]
IC50 [1, 4]: > 100 µM
IC50 [1, 5]: > 100 µM
IC90 [1, 6]: > 100 µM
Intracellular Amastigotes SI (CC50 of Vero cells/IC50) [1]: <5
melting point: 209 to 212 °C
CC50 at 72 h [2]: > 50 µM
IC50 [3]: > 100 µM
IC90 [3]: > 100 µM
Trypomastigotes SI (CC50 of Vero cells/IC50) [3]: <5

Nc1c(C2=NCCS2)cnn1-c1cccc(Cl)c1Cl [Compound 1l, 2-(5-amino-1-(2,3-dichlorophenyl)-1H-pyrazol-4-yl)-4,5-dihydrothiazole]
IC50 [1, 4]: 11.1 ± 2 µM
IC50 [1, 5]: 11.2 µM
IC90 [1, 6]: > 100 µM
Intracellular Amastigotes SI (CC50 of Vero cells/IC50) [1]: >44.9
melting point: 188 to 190 °C
CC50 at 72 h [2]: > 500 µM
IC50 [3]: > 100 µM
IC90 [3]: > 100 µM
Trypomastigotes SI (CC50 of Vero cells/IC50) [3]: <5

Nc1c(C2=NCCS2)cnn1-c1cccc(Cl)c1 [Compound 1b, 2-(5-amino-1-(3-chlorophenyl)-1H-pyrazol-4-yl)-4,5-dihydrothiazole]
IC50 [1, 4]: 95.7 ± 4.8 µM
IC50 [1, 5]: 97.7 µM
IC90 [1, 6]: > 100 µM
Intracellular Amastigotes SI (CC50 of Vero cells/IC50) [1]: 5.2
melting point: 186 to 189 °C
CC50 at 72 h [2]: > 500 µM
IC50 [3]: 96.9 ± 3.1 µM
IC90 [3]: > 100 µM
Trypomastigotes SI (CC50 of Vero cells/IC50) [3]: >5.2

Nc1c(C2=NCCS2)cnn1-c1ccc(Br)cc1 [Compound 1i, 2-(5-amino-1-(4-bromophenyl)-1H-pyrazol-4-yl)-4,5-dihydrothiazole]
IC50 [1, 4]: > 100 µM
IC50 [1, 5]: > 100 µM
IC90 [1, 6]: > 100 µM
Intracellular Amastigotes SI (CC50 of Vero cells/IC50) [1]: <5
melting point: 282 to 284 °C
CC50 at 72 h [2]: > 500 µM
IC50 [3]: 49.3 ± 4.7 µM
IC90 [3]: > 100 µM
Trypomastigotes SI (CC50 of Vero cells/IC50) [3]: >10.1

COc1ccc(-n2ncc(C3=NCCS3)c2N)cc1 [Compound 1k, 2-(5-amino-1-(4-methoxyphenyl)-1H-pyrazol-4-yl)-4,5-dihydrothiazole]
IC50 [1, 4]: 79.1 ± 4.4 µM
IC50 [1, 5]: 79.4 µM
IC90 [1, 6]: 97.3 ± 4.7 µM
Intracellular Amastigotes SI (CC50 of Vero cells/IC50) [1]: >6.3
melting point: 164 to 166 °C
CC50 at 72 h [2]: > 500 µM
IC50 [3]: 12 ± 3.5 µM
IC90 [3]: 93.4 ± 5.5 µM
Trypomastigotes SI (CC50 of Vero cells/IC50) [3]: >39.9

Clc1ccc(-n2cc(C3=NCCS3)cn2)cc1 [Compound 2f, 2-(1-(4-chlorophenyl)-1H-pyrazol-4-yl)-4,5-dihydrothiazole]
IC50 [1, 7]: 7.6 ± 2.5 µM
IC50 [1, 4]: < 10 µM
IC50 [1, 5]: ~10 µM
IC90 [1, 6]: 33.5 ± 4.4 µM
Intracellular Amastigotes SI (CC50 of Vero cells/IC50) [1]: 12.0
melting point: 130 to 133 °C
CC50 at 72 h [2]: 91.7 ± 13.1 µM
IC50 [3]: 0.6 ± 0.3 µM
IC90 [3]: 13.3 ± 2.3 µM
Trypomastigotes SI (CC50 of Vero cells/IC50) [3]: 143.6

Brc1cccc(-n2cc(C3=NCCS3)cn2)c1 [Compound 2j, 2-(1-(3-bromophenyl)-1H-pyrazol-4-yl)-4,5-dihydrothiazole]
IC50 [1, 7]: 8.1 ± 1.3 µM
IC50 [1, 4]: < 10 µM
IC50 [1, 5]: ~10 µM
IC90 [1, 6]: 31.1 ± 3.1 µM
Intracellular Amastigotes SI (CC50 of Vero cells/IC50) [1]: 7.9
melting point: 104 to 106 °C
CC50 at 72 h [2]: 64.5 ± 7.3 µM
IC50 [3]: 9.1 ± 0.9 µM
IC90 [3]: 48.2 ± 4.1 µM
Trypomastigotes SI (CC50 of Vero cells/IC50) [3]: 7.11

Nc1c(C2=NCCS2)cnn1-c1cccc(F)c1 [Compound 1h, 2-(5-amino-1-(3-fluorophenyl)-1H-pyrazol-4-yl)-4,5-dihydrothiazole]
IC50 [1, 4]: > 100 µM
IC50 [1, 5]: > 100 µM
IC90 [1, 6]: > 100 µM
Intracellular Amastigotes SI (CC50 of Vero cells/IC50) [1]: <5
melting point: 230 to 232 °C
CC50 at 72 h [2]: > 500 µM
IC50 [3]: > 100 µM
IC90 [3]: > 100 µM
Trypomastigotes SI (CC50 of Vero cells/IC50) [3]: <5

Nc1c(C2=NCCS2)cnn1-c1cc(Cl)cc(Cl)c1 [Compound 1d, 2-(5-amino-1-(3,5-dichlorophenyl)-1H-pyrazol-4-yl)-4,5-dihydrothiazole]
IC50 [1, 4]: 63.2 ± 5.4 µM
IC50 [1, 5]: 64.6 µM
IC90 [1, 6]: > 100 µM
Intracellular Amastigotes SI (CC50 of Vero cells/IC50) [1]: 6.6
melting point: 232 to 234 °C
CC50 at 72 h [2]: 416 ± 34.6 µM
IC50 [3]: > 100 µM
IC90 [3]: > 100 µM

Nc1c(C2=NCCS2)cnn1-c1ccc(F)cc1 [Compound 1g, 2-(5-amino-1-(4-fluorophenyl)-1H-pyrazol-4-yl)-4,5-dihydrothiazole]
IC50 [1, 4]: 96.3 ± 2.7 µM
IC50 [1, 5]: 97.7 µM
IC90 [1, 6]: > 100 µM
Intracellular Amastigotes SI (CC50 of Vero cells/IC50) [1]: 5.6
melting point: 244 to 246 °C
CC50 at 72 h [2]: 483 ± 16.6 µM
IC50 [3]: > 100 µM
IC90 [3]: > 100 µM
Trypomastigotes SI (CC50 of Vero cells/IC50) [3]: <5
